One substance from patent US11331375B2, “Compositions and methods for regulating leukocyte adhesion” (University of Virginia Patent Foundation, priority 2015, dated 2022) can be followed below.

In assay [1] the test system is HCoAEC. In words: In vitro ATP release assay, HCoAEC. Format: cell-based, human. The protocol: In vitro Human arterial and venous ECs were seeded in 24-well plates pre-coated with 0.2% gelatin and grown to confluency. On the day of experiment, the media was removed from each well and cells were carefully washed twice with warm serum free basal EC medium supplemented with 1% BSA. Cells were then incubated in 300 μL of fresh basal EC medium supplemented with 1% BSA for 30 minutes at 37° C. to allow degradation of extracellular ATP released due to mechanical stimulation during washes. Endogenous ecto-nucleotidases were inhibited by incubating EC monolayers with 300 μM ARL 67156 (Tocris) for 30 minutes at 37° C. Cells were then stimulated with recombinant human TNFα (R&D Systems). For dose response experiments, ECs were incubated with 0.1, 1, 5, 10, 50, or 100 ng/mL recombinant TNFα for 30 minutes at 37° C. […] The role of caspase activation was assessed by inhibition with the pan-caspase blocker Q-VD-OPh (100 μM; Sigma). […] Using a FluoStar Omega luminometer, 50 μL of luciferin:luciferase reagent (ATP bioluminescence assay kit HSII; Roche) was injected into each well and luminescence was recorded following a 5s orbital mix. ATP concentration in each sample was calculated from a standard curve for all experiments. Data are presented as a % change in ATP release from baseline (i.e. unstimulated cells) and expressed as mean±SEM (n=5 independent experiments with triplicate measurements).

For assay [2], the system named is isolated murine mesenteric venules. In words: Ex vivo vascular perfusion ATP release assay, mesenteric venules. The following applies: lumenal perfusion. Format: cell-based, mouse. The protocol: For isolated blood vessel experiments, 2nd order venules or arterioles were dissected from the mouse mesentery circulation and cannulated on glass micropipettes to access the vessel lumen. […] Vessels were then perfused with MOPS PSS containing 300 μM ARL 67156 +/− pharmacological inhibitors and incubated for an additional 20 minutes prior to perfusion with MOPS PSS containing recombinant murine TNFα (R&D Systems). Aliquots of the lumenal perfusate were collected every 5 minutes for a 25-minute period and the ATP concentration was quantified by bioluminescence as described above. Data are expressed as mean±SEM (n=4 independent experiments).

The test system of assay [3] is THP-1 monocyte adhesion to HUVEC. Kind of assay: Static adhesion assay, THP-1 monocytes on HUVEC. Type of assay: cell-based, human. The following applies: HUVEC monolayers activated with TNFα for 30 minutes. The protocol: HUVECs were seeded on gelatin-coated glass coverslips in 6-well plates and grown to confluence. On the day of the experiment, cells were washed 2× with 1× PBS and incubated for 30 minutes in basal EGM supplemented with 1% BSA in the presence or absence of pharmacological inhibitors. During this incubation period, human THP-1 monocytes were loaded with Calcein-AM (Invitrogen; 5 μg/mL) for 30 minutes at 37° C. Cells were then pelleted by brief centrifugation and excess calcein was removed by washing THP-1 cells 3 times in 1× PBS. Next, HUVECs were stimulated with TNFα (10 ng/mL) for 30 minutes. Following EC activation, calcein-loaded THP-1 monocytes were added to EC monolayers and incubated for 20 minutes at 37° C. to allow THP-1 to contact ECs. Monolayers were then washed 3× with 1× PBS and fixed in ice cold 4% PFA. Following fixation, coverslips were removed from the 6-well plates and mounted on glass microscope slides with Prolong Gold anti-fade mountant with DAPI (Life Technologies). Fluorescent micrographs were obtained at 10×magnification and the number of adherent THP-1 monocytes/ECs was quantified in 5 randomized regions/slide. Data are expressed as mean±SEM (n=3 independent experiments).

Assay [4] concerns Src Family Kinases (SFK). In words: Western blot of SFK activation in isolated mesenteric venules. Type of assay: cell-based, mouse. The following applies: mesenteric venules perfused with TNFα 50 ng/mL 30 minutes. The method, then:
Following stimulation with TNFα (in vitro: 10 ng/mL; ex vivo: 50 ng/mL), confluent endothelial cell monolayers or isolated mesenteric venules were homogenized in ice cold Triton extraction buffer (50 mM Tris-HCL, 150 mM NaCl , 5 mM EDTA, 1% deoxycholate, 1% NP-40 and 1% Triton-X100 in phosphate buffered saline and pH adjusted to 7.4) containing protease and phosphatase inhibitors. Cell/Tissue lysates were incubated with rotation at 4° C. for 20 minutes to solubilize proteins, followed by centrifugation for 5 minutes at 13,000× g to pellet cell debris. Protein concentration was quantified using the BCA method. 15-20 μg of total protein was subjected to SDS gel electrophoresis using 4-12% Bis-Tris gels (Invitrogen) and transferred to nitrocellulose membranes for immunoblotting. Membranes were blocked for 1 hr at room temperature with LiCOR blocking solution, then incubated overnight at 4° C. with primary antibodies against pY416SFKs, (BD Biosciences; 1:1000) pY198Panx1 (Alpha Diagnostic Intl (ADI); 1:1000) and GAPDH (Sigma; 1:10,000) or an antibody against the intracellular loop of Panx1 (Panx1-IL) (ADI; 1:1000) (normalization controls). Membranes were then washed and incubated with LiCOR secondary antibodies (1:10,000) and visualized and quantitated using LiCOR Odyssey. […] Data are expressed as mean±SEM (n=3 independent experiments).

On to TNFα, for which, in assay [1], the “ATP release on cytokine stimulation” value was “failed to release ATP”. Also, in assay [2], the “ATP accumulation in the perfusate on cytokine perfusion” value is “time- and dose-dependent increase”. Further, in assay [3], the “increase of THP-1 monocyte adhesion” value was around 4 fold. Also, the SFK activation result in assay [4] is listed as “increasing SFK activation”.
